Source: patent EP1038880B1, “Androstanes and pregnanes for allosteric modulation of GABA receptor” (priority 1994, dated 1995)

What was measured:
Sprague-Dawley rats = assay: Geller-Seifter conflict test; type: in vivo
Source text: This animal model of human anxiety utilizes a conditioned state of conflict in rats to ascertain the anxiolytic properties of drugs. […] The first includes bar pressing under a variable […] schedule without punishment. The second component is a fixed ratio schedule with each bar press resulting in a positive reinforcement and a punishment. The punished component produces a state of conflict within the animal. […] An anxiolytic response would increase the punished responding without affecting the unpunished responding.
Rats were housed individually under a 12-hour light-dark cycle with lights on from 0700-1900.
Rats were trained in test chambers (Coulbourn instruments) with a lever mounted in one wall, a small dipper that delivered the 0.1-mL milk reward (1 part Eagle condensed : milk 2 parts water), and a metal grid floor through which the foot-shock punishment was administered. A DEC PDP 11/73 minicomputer nmning SKED (State Systems) was used for programming and recording.
Rates initially learned to respond on a continuous reinforcement schedule and progressed rapidly to 30-sec, 1-min, and 2-min variable interval (VI) schedules. On the continuous reinforcement schedule, rats received milk reward following every lever press; on the VI schedules, milk rewards were available at infrequent and variable intervals, eventually at an average of once every 2 min. […] During conflict periods, which were signalled by the presentation of a light and a tone, the continuous reinforcement schedule was again in force and each lever press delivered both a milk reward and a brief ([…]) foot-shock Shock intensity was 0.2 mA initially, and.was increased daily in increments of 0.02 mA in order to gradually suppress lever pressing to 5 responses or less per conflict period. […] Drug-induced increases in the rate of punished responses were taken as an index of antianxiety activity, while decreases in the rate of unpunished responses were taken as an index of response depression or sedation.

Rats = assay: Vogel test; type: in vivo; conditions: i.c.v., g-CD
Source text: The Vogel test is based on the development of a conflict between a highly motivated behavior and an aversion. For this test, the strong motivation is thirst. The animal is water deprived for 12-16 hrs to produce the motivation to drink. During the training period the animals are exposed to the testing environment so they become accustomed to the drinking spout and minimize the fear of a novel environment. Following training, the animals are allowed access to water for 2 hrs. During this time, the animals will drink and eat their normal amount of water and food, compensating for the deprivation time. However, this schedule still produces a strong motivation to drink during the testing period.
Having been deprived of water for twelve to sixteen hours, an animal is placed in a test cage where it is allowed to drink freely for five minutes. This period is used to habituate the animal to the environment and the drinking spout. Following the training period, animals have access to water and food in their home cage for 2 hrs. Food is available at all times. Twenty-four hours later, drug is administered to the animal intracecebroventricularly.
After an indicated delay started from the time of injection the animal is again placed in the test cage for ten minutes. A computer counts each time the animal licks, and after every twentieth lick administers a mild electric stimulus across the tongue and/or feet. The electrical stimulus consists of a 0.6 mA current with a duration of 100 msec. This procedure produces a state of conflict for the animal that is reduced by the administration of clinically used anxiolytic agents (i.e., Valium). For dose-response curves, separate groups of animals are injected with increasing doses of test drug and are tested at a predetermined time.
Table 10. Anxiolytic Activity in Vogel Test in Rats

[1] = biological target: T1, Hippocampal Mineralocorticoid Receptors (Rattus norvegicus, UniProt P22199); assay: Inhibition of 3H-aldosterone binding, brain cytosol; parameters: species or system rats; conditions: competitor 10^-6M; 3 nM 3H-aldosterone, RU28362 0.5 µM
T1 construct: To isolate the mineralocorticoid receptor, brain cytosol fractions were prepared; from tissue; host or cells: rat brain (hippocampal) cytosol
T1 sequence (P22199 1-981): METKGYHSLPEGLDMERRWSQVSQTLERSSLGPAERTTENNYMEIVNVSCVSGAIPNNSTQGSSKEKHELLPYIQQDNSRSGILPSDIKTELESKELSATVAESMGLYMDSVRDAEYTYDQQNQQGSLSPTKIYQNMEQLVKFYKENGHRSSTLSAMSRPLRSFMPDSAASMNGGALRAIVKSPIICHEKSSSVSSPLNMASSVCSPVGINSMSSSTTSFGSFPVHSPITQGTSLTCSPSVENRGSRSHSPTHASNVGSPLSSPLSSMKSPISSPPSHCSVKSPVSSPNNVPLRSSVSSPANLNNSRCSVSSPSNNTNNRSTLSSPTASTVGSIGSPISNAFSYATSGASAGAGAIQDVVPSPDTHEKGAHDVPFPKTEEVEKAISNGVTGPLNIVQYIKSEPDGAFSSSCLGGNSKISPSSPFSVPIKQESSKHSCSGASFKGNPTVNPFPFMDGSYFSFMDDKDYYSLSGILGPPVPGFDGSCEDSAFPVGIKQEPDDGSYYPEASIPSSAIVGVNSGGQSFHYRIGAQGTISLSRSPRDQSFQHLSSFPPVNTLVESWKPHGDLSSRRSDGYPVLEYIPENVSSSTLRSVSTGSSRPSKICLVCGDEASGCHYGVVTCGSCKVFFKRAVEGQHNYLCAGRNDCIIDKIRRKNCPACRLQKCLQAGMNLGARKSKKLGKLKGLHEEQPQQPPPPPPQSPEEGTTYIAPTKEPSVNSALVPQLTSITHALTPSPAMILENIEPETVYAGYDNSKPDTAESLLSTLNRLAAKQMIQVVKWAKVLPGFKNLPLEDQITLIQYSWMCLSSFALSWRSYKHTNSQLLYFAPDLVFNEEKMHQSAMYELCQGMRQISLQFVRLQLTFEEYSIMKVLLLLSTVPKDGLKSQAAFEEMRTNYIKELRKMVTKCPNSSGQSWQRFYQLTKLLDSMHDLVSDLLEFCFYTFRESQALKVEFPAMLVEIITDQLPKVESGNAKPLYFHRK
Description: (§1) Various hormonal activities of representative neuroactive steroids were further studied through testing their potential estrogenic, mineralocorticoid and glucocorticoid activities. These activities were analyzed by monitoring the ability of the compounds to inhibit binding of the steroid hormones to their respective hormone receptors.
In Table 3, rats were adrenalectomized 3 days prior to sacrifice. […] Table 2. Inhibition of 3H-Progesterone Binding to the Bovine Uteral Progesterone Receptors
Table 3. Inhibition of 3H-Aldosterone Binding to Hippocampal Mineralocorticoid Receptors

GR complex = assay: [35S]TBPS binding assay (inhibition of [35S]TBPS binding, cerebral cortex P2 homogenate); parameters: species or system rat; conditions: for modulation of [35S]TBPS binding, in words: even at very high concentrations (Figure 6)
Method in brief: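 Rat (male Sprague-Dawley) cortical P2 homogenate (0.5 mg protein) in 50 mM Na/K phosphate pH 7.4, 200 mM NaCl, incubated with 2 nM [35S]TBPS plus steroid test compounds (DMSO) in presence of GABA plus (+)bicuculline, 25°C, 90 min. Filtration, scintillation counting; nonspecific binding defined with […].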

[2] = tested on: Bovine Uteral Progesterone Receptors; assay: Inhibition of 3H-progesterone binding, uterus cytosol; conditions: competitor 10^-6M; 3H-progesterone 0.15 nM
Description: The data presented were obtained by performing assays in accordance with the procedures described in et al. 1988 previously to determine the effect of progesterone metabolites and their derivatives and the progestin R5020 on the binding of [^3H]R5020 to the progesterone receptor in rat uterus (Gee et al. 1988).
^3H-progesterone (0.15 nM) was incubated with the rat uterus cytosol in the presence of the test compounds. The specific binding were determined after incubation and compared to the control incubation without the compounds. The data are expressed as percent inhibition of binding.
In Table 3, rats were adrenalectomized 3 days prior to sacrifice. To isolate the mineralocorticoid receptor, brain cytosol fractions were prepared as describe in Gee, et al. 1988. The drugs were incubated with 3 nM of ^3H-aldosterone (the specific ligand for the mineralocorticoid receptor) in the presence of the selective type II agonist RU28362 (0.5 µM) which blocks ^3H-aldosterone binding to the type II (glucocorticoid) receptors. Table 2. Inhibition of 3H-Progesterone Binding to the Bovine Uteral Progesterone Receptors

Glucocorticoid Receptors = biological target: T2, Glucocorticoid Receptors (Rattus norvegicus, UniProt P06536); assay: Inhibition of 3H-dexamethasone binding, brain cytosol; parameters: species or system rats; dose or concentration left out as unconfirmed; conditions: read-out: % of Inhibition
T2 construct: from tissue; host or cells: rat brain cytosol
T2 sequence (P06536 1-795): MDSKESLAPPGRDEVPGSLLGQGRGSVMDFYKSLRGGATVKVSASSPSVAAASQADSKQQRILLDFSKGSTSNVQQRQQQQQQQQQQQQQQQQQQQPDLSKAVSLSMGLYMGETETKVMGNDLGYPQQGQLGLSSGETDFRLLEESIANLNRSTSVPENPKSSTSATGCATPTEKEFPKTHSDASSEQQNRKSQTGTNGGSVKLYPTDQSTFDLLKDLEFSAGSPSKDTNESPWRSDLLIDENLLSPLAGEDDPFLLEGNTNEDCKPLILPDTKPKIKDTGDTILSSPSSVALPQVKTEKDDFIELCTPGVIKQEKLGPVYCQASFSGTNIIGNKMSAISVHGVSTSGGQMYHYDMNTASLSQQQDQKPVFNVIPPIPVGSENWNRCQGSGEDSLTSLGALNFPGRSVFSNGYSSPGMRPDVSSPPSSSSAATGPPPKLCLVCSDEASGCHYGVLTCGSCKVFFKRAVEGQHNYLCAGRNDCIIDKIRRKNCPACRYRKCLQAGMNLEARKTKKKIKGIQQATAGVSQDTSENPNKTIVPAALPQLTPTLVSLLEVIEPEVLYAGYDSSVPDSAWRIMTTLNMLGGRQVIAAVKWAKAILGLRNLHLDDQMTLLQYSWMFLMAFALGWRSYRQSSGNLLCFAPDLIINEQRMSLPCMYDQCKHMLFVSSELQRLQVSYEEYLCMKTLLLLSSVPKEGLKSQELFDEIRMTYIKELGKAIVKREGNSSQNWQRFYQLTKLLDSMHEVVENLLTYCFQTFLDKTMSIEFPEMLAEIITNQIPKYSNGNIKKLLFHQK
Description: as §1
For Table 4, brain cytosol fractions were prepared as for Table 3, and the compounds were incubated with 3 nM of ^3H-dexamethasone (the specific ligand for the glucocorticoid receptor).

`CC(=O)C1CCC2C3CCC4CC(O)(C(F)(F)F)CCC4(C)C3C(N(C)C)CC12C` (stereo not drawn) [11α-N,N-Dimethylamino-3α-hydroxy-3β-trifluoromethyl-5β pregnan-20-one] was tested, and the “Geller/ Seifter (% of control)” value (Sprague-Dawley rats; IP, citrate, 20 mg/kg) was 145 % of control.

In the case of `C[C@H](O)[C@H]1CC[C@H]2[C@@H]3CC[C@H]4C[C@H](O)CC[C@]4(C)[C@H]3CC[C@]12C` [3α,20α(S)-Dihydroxy-5α-pregnane], the “Vogel (%of control)” value (Rats; 10 µg/kg) is reported as 193.0 %of control.

For `CC(O)C1CCC2C3CCC4CC(O)C(F)CC4(C)C3CCC12C` (stereo not drawn) [2β-Fluoro-3α,20α-dihydroxy-5α-pregnane], the “Vogel (%of control)” value (Rats; 20 µg/kg) was 264.9 %of control.

In the case of `C[C@H](O)[C@H]1CC[C@H]2[C@@H]3CC[C@@H]4C[C@H](O)CC[C@]4(C)[C@H]3CC[C@]12C` [5β-pregnan-3α,20α-diol], the inhibition at 1 µM [1] is reported as 0%, the “modulation of [35S]TBPS binding, in words” value (GR complex) is reported as “partially modulate” and the “% of Inhibition” value [2] is reported as 0%.

Work on `C[C@]12CCC(=O)C=C1CC[C@@H]1[C@@H]2[C@@H](O)C[C@]2(C=O)[C@@H](C(=O)CO)CC[C@@H]12` [Aldosterone] yielded an inhibition at 1 µM [1] of 95.5%.

In the case of `C[C@]12CC[C@@H](O)C[C@H]1CC[C@@H]1[C@@H]2CC[C@]2(C)[C@@H](C(=O)CO)CC[C@@H]12` [5β-pregnan-3α,21-diol-20-one], the inhibition at 1 µM [1] is reported as 13.8%, the “% of Inhibition” value [2] is reported as 6% and the inhibition (Glucocorticoid Receptors) is reported as 8.2%.

For `CC(C)OC1CC2(C)C(CCC3C2CCC2(C)C(C(C)O)CCC32)CC1O` (stereo not drawn) [3α,20α-Dihydroxy-2β-isopropoxy-5α-pregnane], the “Vogel (%of control)” value (Rats; 10 µg/kg) was 169.0 %of control.

With `CCOC[C@@]1(O)CC[C@@]2(C)[C@@H](CC[C@@H]3[C@@H]2CC[C@]2(C)[C@@H](C(C)=O)CC[C@@H]32)C1` [3α-hydroxy-3β-ethoxymethyl-5α-pregnan-20-one] the “Geller/ Seifter (% of control)” value (Sprague-Dawley rats; IP, 50% hpbcd, 40 mg/kg) was 3743 % of control.

In the case of `COCC1(O)CCC2(C)C(CCC3C2CCC2(C)C(C(=O)CSS(=O)(=O)[O-])CCC32)C1.[Na+]` (stereo not drawn) [sodium S-(3α-hydroxy-3β-methoxymethyl-5α-pregnan-20-on-21-yl) thiosulfate], the IC50 (GR complex; 2 nM [35S]TBPS, rat cerebral cortex P2 homogenate) is reported as 132 nM, the IMAX (GR complex; maximum inhibition of [35S]TBPS binding) is reported as 103% and the “Geller/ Seifter (% of control)” value (Sprague-Dawley rats; PO, water, 32 mg/kg) is reported as 4487.5 % of control.

For `CC(C)(O)[C@H]1CC[C@H]2[C@@H]3CC[C@H]4C[C@H](O)CC[C@]4(C)[C@H]3CC[C@]12C` [5α-pregnan-20-dimethyl-3α,20-diol], the inhibition at 1 µM [1] was 0%, the “% of Inhibition” value [2] was 0% and the inhibition (Glucocorticoid Receptors) was 2.6%.

For `C[C@H](O)[C@H]1CC[C@H]2[C@@H]3CC[C@H]4C[C@H](O)CC[C@]4(C)[C@H]3CC[C@]12C` [5α-pregnan-3α,20α-diol, reference compound], the inhibition at 1 µM [1] was 0%, the “modulation of [35S]TBPS binding, in words” value (GR complex) was “partially modulate” and the “Vogel (%of control)” value (Rats; 10 µg/kg) was 283.3 %of control. The “Vogel (%of control)” value (Rats; 20 µg/kg) was 267.3 %of control.

In the case of `COC[C@@]1(O)CC[C@@]2(C)[C@@H](CC[C@@H]3[C@@H]2CC[C@]2(C)[C@@H](C(C)=O)CC[C@@H]32)C1` [3α-Hydroxy-3β-methoxymethyl-5α-pregnan-20-one], the “Geller/ Seifter (% of control)” value (Sprague-Dawley rats; IP, 50% hpbcd, 10 mg/kg) is reported as 958 % of control.

In the case of `CCC[C@H](O)[C@H]1CC[C@H]2[C@@H]3CC[C@H]4C[C@H](O)CC[C@]4(C)[C@H]3CC[C@]12C` [3α,20α-Dihydroxy-21-ethyl-5α-pregnane], the “Vogel (%of control)” value (Rats; 20 µg/kg) is reported as 225.8 %of control.

For `CC[C@H](O)[C@H]1CC[C@H]2[C@@H]3CC[C@H]4C[C@H](O)CC[C@]4(C)[C@H]3CC[C@]12C` [3α,20α-Dihydroxy-21-methyl-5α-pregnane], the “Vogel (%of control)” value (Rats; 10 µg/kg) was 157.9 %of control.
